Assay results: publication PMC5029711, “Functional characterization and anti-cancer action of the clinical phase II cardiac Na^+/K^+ ATPase inhibitor istaroxime: in vitro and in vivo properties and cross talk with the membrane androgen receptor” (Oncotarget, 2016)

Biological target: T1, Na^+/K^+ ATPase
T1 construct: gene ATP1A1; enzyme isolated from porcine cerebral cortex
Experiment: ATPase enzymatic activity assay (Sigma) with isolated porcine cerebral cortex enzyme
Assay type: biochemical, Sus scrofa

`C[C@]12CCC(=NOCCN)C[C@@H]1C(=O)C[C@@H]1[C@@H]2CC[C@]2(C)C(=O)CC[C@@H]12` [istaroxime, (E, Z) 3-(2-aminoethoxyimino)-5α-androstane-6, 17-trione] was tested, and the IC50 was 408 nM.
